Results reported in patent US20190216731A1, “PROCESS FOR PROVIDING PARTICLES WITH REDUCED ELECTROSTATIC CHARGES” (Chiesi Farmaceutici S.p.A., priority 2010, published 2019).

Columns and labels:
[1] = Dispersive surface energy by inverse gas chromatography (IGC); format: physicochemical; details: IGC at 25° C., 0% RH, FIG. 1
Procedure: The surface energies were measured by inverse gas chromatography (IGC). All analyses were carried out using the SMS-iGC 2000 and the SMS-iGC v1.3 standard analysis suite and SMS-iGC v1.21 advanced analysis suite of macros. A flame ionization detector (FID) was used to determine the retention times. The samples were stored in a cold (˜5° C.), dry environment until run on the IGC. For all experiments, the powders were packed into a silanized glass column (300 mm long by 4 mm diameter) using the SMS Column Packing Accessory. All columns were analyzed 3 times sequentially to check for irreversible chemisorption effects and equilibrium after preconditioning.
In this study, the columns were pre-treated for 2 hours at 25° C. and 0% RH in a helium carrier gas to condition the sample. Then, the surface energy measurements were performed at 25° C. (3 times sequentially with a 2-hour conditioning between runs). All experiments were carried out at 10 sccm total flow rate of helium, and injection vapor concentration of 0.03 P/0 for all elutants.

[2] = cited from earlier work

Row | Molecule | dispersive surface energy [1] [mJm^−2] | dispersive surface energy, values reported in the literature [2] [mJm^−2]
1 | O.OC[C@H]1O[C@@H](O[C@H]2[C@H](O)[C@@H](O)[C@@H](O)O[C@@H]2CO)[C@H](O)[C@@H](O)[C@H]1O [Meggle D30 reference, α-lactose monohydrate] | 41.8 | 41
2 | magnesium stearate | 42.1 | 41
